These results are taken from patent US20230000869A1, “NOVEL ALK2 INHIBITORS AND METHODS FOR INHIBITING BMP SIGNALING” (The Brigham and Women's Hospital, Inc., priority 2017, published 2023).

The target of one assay is T1, ALK1 (Homo sapiens, UniProt P37023).
T1 construct: purchased Life technology (Fredrick, Md.) and/or CARNA BIOSCIENCES Inc. (Kobe, Japan)
Nature of the assay: TR-FRET enzymatic assay, ALK1 kinase, 1536-well. In kind it is biochemical. The following applies: for IC50 / ALK1 Span: TR-FRET; for IC50: 10 nM ALK, Ulight topo II substrate 50 nM, ATP 10 uM (Table 1); for ALK1 Span: span of the concentration-response curve. The source says: (§1) We have developed six ALK kinase enzyme assays for determination of compound activities on ALK1, ALK2, ALK3, ALK4, ALK5 and ALK6. For the assay development, we had tested a number of substrates and assay conditions that led to the final optimized assay protocols with good assay windows with signal to basal (S/B) ratios above 20 fold for all six ALK assays (FIG. 1). In our knowledge, these ALK kinase assays have not been reported elsewhere.
(§2) ALK1 and ALK2-ALK6 were obtained from Life technology (Fredrick, Md.) and CARNA BIOSCIENCES Inc. (Kobe, Japan). Ulight-DNA Topoisomerase 2 alpha (Thr-1342) peptide and Europium anti-phospho-DNA Topoisomerase 2 alpha (Thr-1342) antibody was from Perkin Elmer Inc. The kinase buffer was composed of 50 mM HEPES pH7.0, 10 mM MgCl2, 3 mM MnCl2, 0.005% Tween-20 and 2 mM DTT. The compound plates and the white solid MB assay plates were purchased from Greiner Bio-one (Monroe, N.C.).
(§3) The binding of Eu-anti-phospho-peptide antibody to the phosphorylated Ulight peptide substrate bring both Eu donor and Ulight acceptor dye into close proximity. Upon excitation at 320-340 nm, the emission energy from Eu donor is transferred to Ulight acceptor dye that will generate light at 665 nm. The intensity light emission is proportional to the level of the peptide phosphorylation by ALKs. The assay was optimized and performed in 1536 plate (Table 1). Briefly, the ALKs enzymatic assay was initiated by dispense 2.5 ul enzyme with a final concentration at 10 nM prepared in 1× kinase reaction buffer. The assay plate was then added with compounds with the Pintool station (23 nl/well compound dilutions in DMSO solution) that was followed by incubation at room temperature for 10 minutes. Then 2.5 ul/well substrate was added in which 50 nM peptide substrate mixed with 10 uM, 100 uM or 1 mM ATP (final concentration). The assay plate was incubated at room temperature for 60 minutes and the kinase reaction was stopped by addition of 5 ul/well of 4 nM Eu-anti-phospho-peptide antibody with 12 mM EDTA prepared in 1× detection buffer. The assay plate was measured in an EnVision plate reader (Perkin Elmer) in the TR-FRET detection mode (excitation at 340 nm and emission at 665 nm).

A further assay deals with T2, ALK2 (Mus musculus, UniProt P37172).
T2 construct: endogenous in cells; host or cells: C2C12-BRE (BRE-Luc reporter line, G418 selection)
T2 sequence (P37172 21-509): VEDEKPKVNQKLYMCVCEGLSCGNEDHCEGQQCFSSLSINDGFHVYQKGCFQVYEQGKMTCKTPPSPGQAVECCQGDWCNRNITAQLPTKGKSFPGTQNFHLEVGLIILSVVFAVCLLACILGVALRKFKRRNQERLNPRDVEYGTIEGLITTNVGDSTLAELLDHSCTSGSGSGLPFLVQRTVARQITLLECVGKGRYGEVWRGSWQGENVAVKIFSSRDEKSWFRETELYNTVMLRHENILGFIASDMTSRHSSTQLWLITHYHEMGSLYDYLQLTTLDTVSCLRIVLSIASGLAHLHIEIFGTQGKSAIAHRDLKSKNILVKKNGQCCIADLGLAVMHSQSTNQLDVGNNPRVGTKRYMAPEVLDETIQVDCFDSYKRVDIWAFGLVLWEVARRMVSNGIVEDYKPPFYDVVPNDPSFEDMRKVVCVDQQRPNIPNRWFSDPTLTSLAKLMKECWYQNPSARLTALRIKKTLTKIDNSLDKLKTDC
Put plainly: Luciferase reporter gene assay for ALK2 activity (C2C12 BRE-Luc SMAD1/5/8 reporter, BMP6 agonist). It is filed as cell-based. The following applies: BMP6 50 ng/mL. An outline of the steps:
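TGFβ activity was measured in HEK293T SBE-Luc cells stimulated with 5 ng/mL TGFβ, at compound 10000-30 nM final. ALK2 activity was measured in C2C12 BRE-Luc cells stimulated with 50 ng/mL BMP6, at compound 1000-0.3 nM final. Compound was preincubated 45 min in 2% FBS medium; after ≥18 h agonist exposure, luminescence was read and inhibition expressed as % signal loss versus background-subtracted agonist controls.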
(A reporter such as luciferase makes a cellular process visible.)

The target in the next assay is T3, ALK3 (Homo sapiens, UniProt P36894).
T3 construct: purchased Life technology (Fredrick, Md.) and/or CARNA BIOSCIENCES Inc. (Kobe, Japan)
Nature of the assay: TR-FRET enzymatic assay, ALK3 kinase, 1536-well. It is filed as biochemical. The following applies: for IC50: 10 nM ALK, Ulight topo II substrate 50 nM, ATP 10 uM (Table 1); for ALK3 Span: span of the concentration-response curve.
Source text: as §1, §2, §3

T3 sequence (P36894 24-532): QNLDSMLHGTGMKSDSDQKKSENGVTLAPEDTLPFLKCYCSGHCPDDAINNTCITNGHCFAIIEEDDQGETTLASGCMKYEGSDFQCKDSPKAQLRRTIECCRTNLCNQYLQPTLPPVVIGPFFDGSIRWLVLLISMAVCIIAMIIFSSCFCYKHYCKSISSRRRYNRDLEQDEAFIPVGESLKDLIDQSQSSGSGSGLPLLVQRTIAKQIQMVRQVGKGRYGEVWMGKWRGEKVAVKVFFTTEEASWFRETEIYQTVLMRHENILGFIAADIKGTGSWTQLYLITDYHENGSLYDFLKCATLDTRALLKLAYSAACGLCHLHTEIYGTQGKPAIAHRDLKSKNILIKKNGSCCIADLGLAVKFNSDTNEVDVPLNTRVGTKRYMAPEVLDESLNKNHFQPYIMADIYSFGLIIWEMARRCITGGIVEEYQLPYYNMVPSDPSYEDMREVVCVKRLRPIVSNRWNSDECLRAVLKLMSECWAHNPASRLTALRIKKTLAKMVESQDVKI
T1 sequence (P37023 22-503): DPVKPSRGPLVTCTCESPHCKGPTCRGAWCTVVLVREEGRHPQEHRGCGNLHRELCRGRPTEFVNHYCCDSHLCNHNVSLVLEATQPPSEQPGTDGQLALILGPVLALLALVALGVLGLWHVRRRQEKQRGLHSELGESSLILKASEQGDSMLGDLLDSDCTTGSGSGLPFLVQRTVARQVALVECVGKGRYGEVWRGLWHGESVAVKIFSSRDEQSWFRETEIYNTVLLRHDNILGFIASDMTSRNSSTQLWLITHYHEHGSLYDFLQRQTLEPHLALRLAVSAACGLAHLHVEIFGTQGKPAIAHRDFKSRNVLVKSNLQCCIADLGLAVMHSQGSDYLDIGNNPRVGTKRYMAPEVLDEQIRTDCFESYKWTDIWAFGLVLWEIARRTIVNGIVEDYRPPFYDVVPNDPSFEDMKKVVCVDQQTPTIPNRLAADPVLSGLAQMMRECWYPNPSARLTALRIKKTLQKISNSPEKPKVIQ

As a reminder, the IC50 is the concentration that gives 50% inhibition. For the molecule `Cc1cc(-c2cnn3cc(N4CCC(N5CCN(C)CC5)CC4)cnc23)c2ccccc2n1` [Compound 8], at ALK1, the IC50 was 325 nM and the “ALK1 Span” value was 89.1. Besides, the IC50 at ALK2 came to 5 nM. On ALK3, the IC50 came to 1240 nM and the “ALK3 Span” value is given as 97.0.

Regarding `Cc1cc(-c2cnn3cc(N4CCC(N5CCOCC5)CC4)cnc23)c2ccccc2n1` [Compound 11], on ALK1, half-maximal inhibition (IC50) was put at 269 nM and the “ALK1 Span” value was determined as 91.4. At ALK2, this molecule returned an IC50 of 54 nM. On ALK3, 1280 nM corresponded to half-maximal inhibition (IC50) and the “ALK3 Span” value was roughly 115.7.

`COc1cc2c(-c3cnn4cc(N5CCC(N6CCN(C)CC6)CC5)cnc34)ccnc2cc1F` [Compound 15, 7-fluoro-6-methoxy-4-(6-(4-(4-methylpiperazin-1-yl)piperidin-1-yl)pyrazolo[1,5-a]pyrimidin-3-yl)quinoline]: the IC50 against ALK1 came out at 1520 nM; on ALK2, 19 nM; against ALK3 it was 2820 nM. Besides, the “ALK1 Span” value at ALK1 came out at 92.3. At ALK3, the “ALK3 Span” value is 96.93.

For the molecule `Cc1cc(-c2cnn3cc(N4CCC(N5CCNCC5)CC4)cnc23)c2ccccc2n1` [Compound 34], on ALK1, the IC50 was 671 nM and the “ALK1 Span” value came to 93.42. Further, the IC50 at ALK2 was found to be 37 nM. Further, on ALK3, inhibition was half-maximal at 1870 nM (IC50) and the “ALK3 Span” value worked out at 104.4.

As to `c1ccc2c(-c3cnn4cc(-c5ccc(N6CCNCC6)cc5)cnc34)ccnc2c1` [TRND00262637-13], the “activity in ALK1 in the presence of 10, 100, or 1,000 uM ATP” value at ALK1 (FIG. 3, ATP 10 uM versus 100 uM or 1 mM) is on record as “activity reduced in the higher ATP concentrations”.
